Source: patent publication US12552748B2, “Pyridine (thio)amides as fungicidal compounds” (Bayer Aktiengesellschaft, priority 2020, dated 2026)
Marks after values point to notes of the source that are not given here.

Assay: physchem
Format: physicochemical
Experimental: Measurement of Log P values as provided herein was performed according to EEC directive 79/831 Annex V.A8 by HPLC (High Performance Liquid Chromatography) on reversed phase columns with the following methods: […] If more than one Log P value is available within the same method, all the values are given and separated by “+”. Calibration was done with straight-chain alkan2-ones (with 3 to 16 carbon atoms) with known Log P values (measurement of Log P values using retention times with linear interpolation between successive alkanones). Lambda-max-values were determined using UV-spectra from 200 nm to 400 nm and the peak values of the chromatographic signals

Row | SMILES | LogP
1 | Cc1cccc(Oc2cnc(Cl)cc2C(=O)NCCc2ccc(C)cc2C)c1 [Compound I-045] | 4.84^[a]
2 | Cc1ccc(C(F)CNC(=O)c2cc(C)ncc2Oc2cccc(C3CC3)c2F)c(Cl)c1 (racemic) [Compound I-076] | 4.49^[a]
3 | Cc1cccc(Oc2cnc(Cl)cc2C(=O)NCC(F)c2ccc(Cl)cc2Cl)c1 (racemic) [Compound I-043] | 4.92^[a]
4 | Cc1cc(C(=O)NCC(F)c2ccc(Cl)cc2Cl)c(Oc2cccc(C(F)(F)F)c2)cn1 (stereo not shown) [Compound I-202] | 4.18^[a]
5 | Cc1ccc(CCNC(=O)c2cc(Cl)ncc2Oc2cccc(N(C)C)c2)c(C)c1 [Compound I-170] | 4.83^[a]
6 | Cc1ccc(CCNC(=O)c2cc(Cl)ncc2Oc2cccc(C=O)c2)c(C)c1 [Compound I-228] | 3.79^[a]
7 | Cc1ccc(CCNC(=O)c2cc(-c3ccncc3Cl)ncc2Oc2cccc(C(F)(F)F)c2)c(C)c1 [Compound I-204] | 4.61^[a]
8 | O=C(NCCn1cc(Cl)cn1)c1cc(Cl)ncc1Oc1cccc(C(F)(F)F)c1 [Compound I-098] | 3.40^[a]
9 | O=C(NCCc1ccc2[nH]ccc2c1)c1cc(Cl)ncc1Oc1cccc(C(F)(F)F)c1 [Compound I-100] | 3.71^[a]
10 | O=C(c1cc(Cl)ncc1Oc1cccc(C(F)(F)F)c1)N(O)CCc1ccc(Cl)cc1 [Compound I-164] | 4.01^[a]
11 | Cc1ccc(C(F)(F)CNC(=O)c2c(Oc3cccc(C(F)(F)F)c3)cnc(Cl)c2C2CC2)c(C)c1 [Compound I-149] | 5.04^[a]
12 | O=C(NCCc1ccc2c(c1)OCCO2)c1cc(Cl)ncc1Oc1cccc(C(F)(F)F)c1 [Compound I-105] | 3.84^[a]
13 | Cc1ccc(CCNC(=O)c2cc(Cl)ncc2Oc2cccc(OC(F)(F)F)c2F)c(C)c1 [Compound I-229] | 4.95^[a]
14 | Cc1ccc(C(F)(F)CNC(=O)c2c(Oc3cccc(C(F)(F)F)c3)cnc(Cl)c2-c2ccccc2)c(C)c1 [Compound I-188] | 5.12^[a]
15 | O=C(NCC(F)(F)c1cc(Cl)sc1Cl)c1cc(Cl)ncc1Oc1cccc(C(F)(F)F)c1 [Compound I-211] | 5.04^[a]
16 | Cc1ccc(C(F)(F)CNC(=O)c2c(Oc3cccc(C(F)(F)F)c3)cnc(Oc3cccc(C(F)(F)F)c3)c2-n2cccn2)c(C)c1 [Compound I-169] | 5.53^[a]
17 | Cc1ccc(CCNC(=O)c2cc(C(C)F)ncc2Oc2cccc(C(F)(F)F)c2)c(C)c1 (stereo not shown) [Compound I-114] | 4.62^[a]
18 | CNc1c(Cl)ncc(Oc2cccc(C(F)(F)F)c2)c1C(=O)NCC(F)(F)c1ccc(C)cc1C [Compound I-217] | 4.44^[a]
19 | Cc1ccc(C(F)(F)CNC(=O)c2cc(C)ncc2Oc2cccc(C3CC3)c2)c(C)c1 [Compound I-070] | 4.44^[a]
20 | Cc1ccc(C(F)(F)CNC(=O)c2cc(C)ncc2Oc2cccc(C(F)(F)F)c2)c(Cl)c1 [Compound I-033] | 4.19^[a]
21 | CCN(CCc1ccccc1)C(=O)c1cc(Cl)ncc1Oc1cccc(C(F)(F)F)c1 [Compound I-152] | 4.44^[a]
22 | Cc1ccc(CCNC(=O)c2cc(Cl)ncc2Oc2cccc(C(F)(F)F)c2)o1 [Compound I-095] | 4.05^[a]
23 | C=Cc1ccc(C(F)(F)CNC(=O)c2cc(Cl)ncc2Oc2cccc(C(F)F)c2)c(Cl)c1 [Compound I-123] | 4.47^[a]
24 | CCc1ccc(C(F)(F)CNC(=O)c2cc(Cl)ncc2Oc2cccc(C3CC3)c2)c(Cl)c1 [Compound I-185] | 5.49^[a]
25 | Cc1ccc(CCNC(=O)c2cc(C(F)(F)F)ncc2Br)c(C)c1 [Compound 3-002] | 3.77^[a]
26 | Cc1ccc(CCNC(=O)c2cc(Cl)ncc2Oc2cccc(-n3ccc(C(F)(F)F)n3)c2)c(C)c1 [Compound I-159] | 5.03^[a]

Row | SMILES | LogP
27 | O=C(NCCc1cccs1)c1cc(Cl)ncc1Oc1cccc(C(F)(F)F)c1 [Compound I-097] | 3.98^[a]
28 | Cc1ccc(C(F)(F)CNC(=O)c2cc(Cl)ncc2Oc2cccc(C(F)(F)F)c2C)c(C)c1 [Compound I-023] | 5.14^[a]
29 | C=C(OCC)c1cc(C(=O)NCCc2ccc(C)cc2C)c(Oc2cccc(C(F)(F)F)c2)cn1 [Compound I-051] | 4.84^[a]
30 | C#Cc1ccc(C(F)(F)CNC(=O)c2cc(Cl)ncc2Oc2cccc(C(F)F)c2)c(Cl)c1 [Compound I-143] | 4.32^[a]
31 | Cc1ccc(CCNC(=O)c2cc(Cl)ncc2Oc2cccc3c2CCC3)c(C)c1 [Compound I-150] | 5.45^[a]
32 | O=C(NCC(F)(F)c1ccc(Br)cc1Cl)c1c(Oc2cccc(C(F)(F)F)c2)cnc(Cl)c1I [Compound I-046] | 4.96^[a]
33 | O=C(NCC(F)(F)c1ccc(Br)cc1Cl)c1cc(Cl)ncc1Oc1cccc(C(F)F)c1 [Compound I-249] | 4.54^[a]
34 | Cc1ccc(CCNC(=O)c2cc(-c3cn[nH]c3)ncc2Oc2cccc(C(F)(F)F)c2)c(C)c1 [Compound I-206] | 3.63^[a]
35 | Cc1cc(Cl)ccc1C(F)CNC(=O)c1cc(Cl)ncc1Oc1cccc(C(F)(F)F)c1 (racemic) [Compound I-084] | 4.81^[a]
36 | N#Cc1nc(Cl)cc(C(=O)NCC(F)(F)c2ccc(Cl)cc2)c1Oc1cccc(C(F)(F)F)c1 [Compound I-221] | 4.39^[a]
37 | CCc1cc(C(=O)NCC(F)c2ccc(Cl)cc2Cl)c(Oc2cccc(C3CC3)c2)cn1 (racemic) [Compound I-190] | 4.92^[a]
38 | COc1cccc(Oc2cnc(C)cc2C(=O)NCC(F)c2ccc(C)cc2Cl)c1 (stereo not shown) [Compound I-209] | 3.62^[a]
39 | Cc1cc(C(=O)NCC(F)c2ccc(Cl)cc2Cl)c(Oc2cccc(C3CC3)c2)cn1 (stereo not shown) [Compound I-220] | 4.44^[a]
40 | Cc1ccc(CCNC(=O)c2cc(Cl)ncc2Oc2ccc(C)c(Cl)c2)c(C)c1 [Compound I-268] | 5.23^[a]
41 | COc1ccc(CCN(C(C)=O)C(=O)c2cc(Cl)ncc2Oc2cccc(C(F)(F)F)c2)cc1 [Compound I-171] | 4.55^[a]
42 | CC(C)Oc1ccc(CCNC(=O)c2cc(Cl)ncc2Oc2cccc(C(F)(F)F)c2)cn1 [Compound I-106] | 4.08^[a]
43 | CC(NC(=O)c1cc(Cl)ncc1Oc1cccc(C(F)(F)F)c1)c1cn(C)c2cc(Cl)ccc12 (stereo not shown) [Compound I-021] | 4.68^[a]
44 | O=C(NCCc1cccc2[nH]ccc12)c1cc(Cl)ncc1Oc1cccc(C(F)(F)F)c1 [Compound I-101] | 3.71^[a]
45 | Cc1ccc(CCNC(=O)c2cc(Cl)ncc2Oc2cccc(F)c2F)c(C)c1 [Compound I-226] | 4.38^[a]
46 | Cc1ccc(CCNC(=O)c2cc(Cl)ncc2Oc2cccc(C#N)c2F)c(C)c1 [Compound I-126] | 3.91^[a]
47 | Cc1ccc(CCNC(=O)c2cc(C)ncc2Oc2cccc(C(F)(F)F)c2)c(C)c1 [Compound I-028] | 4.03^[a]
48 | Cc1ccc(C(F)(F)CNC(=O)c2cc(Cl)ncc2Oc2cccc(C(F)(F)F)c2)c(Cl)c1 [Compound I-201] | 4.66^[a]
49 | COc1cc(C(=O)O)c(Oc2cccc(C(F)(F)F)c2)cn1 [Compound 1-017] | 2.86^[a]
50 | Cc1ccc(C(F)(F)CNC(=O)c2cc(Cl)ncc2Oc2cccc(C(F)(F)F)c2I)c(C)c1 [Compound I-222] | 5.08^[a]
51 | Cc1cccc(Oc2cnc(C)cc2C(=O)NCC(F)c2ccc(Cl)cc2Cl)c1 (racemic) [Compound I-161] | 4.13^[a]
52 | Cc1ccc(CCNC(=O)c2cc(N3CCCC3)ncc2Oc2cccc(C(F)(F)F)c2)c(C)c1 [Compound I-088] | 4.26^[a]
